In brackets after ≈: the same amount, converted by molar mass.
Columns and labels:
[1] = Thermodynamic solubility test; type: physicochemical; details: buffer solution, aqueous buffer, thermodynamic from solid; thermodynamic solubility, room temperature, 8 hours shaking; buffers pH 2.0, 6.5, 7.4 used, pH of the tabulated value not given
Description: Solubility Test of Compounds
Table 9. Reagents and Instruments
After sonication for 10 minutes, they were fixed on a shaker and shaken at room temperature for 8 hours. After shaking, they were sonicated for 10 minutes and centrifuged at 13000 rpm for 15 minutes. 0.1 mL of supernatant was aspirated into a new tube, rinsed with 5 mL of buffer by shaking, and the liquid was discarded. 0.5 mL of supernatant was transferred again to a new tube, centrifuged at 13000 rpm for 15 minutes, and the supernatant was taken (diluted with water if necessary) for LC-MS injection analysis. Sample concentrations were quantified using a 3-5 point calibration curve.

melanin = assay: Compound binding to melanin; type: in vitro ADME; details: cuttlefish (Sepia officinalis), melanin suspension (1 mg/mL), percentage of free drug (not bound to melanin), 2 µM compound, melanin 1 mg/mL in PBS pH 7.4, 37°C
Text: Detection of Compound Binding to Melanin
Pigmented ocular tissues contain melanin within intracellular melanosomes. Drugs bind to melanin to varying degrees, from no binding to extensive binding. Therefore, melanin binding is an important characteristic affecting ocular drug delivery and biodistribution. The ability of compounds to bind to melanin must be considered in ocular drug development.
Melanin derived from cuttlefish (Sepia officinalis) melanin was purchased from Sigma Aldrich (St Louis, MO).
First, prepare a 1 mg/mL melanin suspension in PBS (pH 7.4). As a matrix washing step, suspended particles were centrifuged at 3000 rpm for 5 minutes. The resulting pellet was resuspended in fresh PBS buffer, heated to 37°C with continuous shaking, and incubated for 1 hour. Accurately pipette 2 microliters of test compound stock solution (0.1 mM) into 98 microliters of melanin suspension (1 mg/mL), resulting in a final incubation concentration of 2 µM. Similarly, accurately pipette 2 microliters of stock solution (0.1 mM) into 98 microliters of PBS buffer (containing 0.1% BSA) as a blank control sample. Samples were incubated at 37°C for 2 hours on a shaker (80-90 rpm). Then centrifuged at room temperature. 50 microliters of supernatant was aspirated and added to 50 microliters of precipitation agent (containing internal standard). All samples above were subjected to protein precipitation, centrifuged, the supernatant was taken, diluted with water (if necessary), and then injected for analysis. Simultaneously, high-binding compounds Sunitinib and chloroquine, and the low-binding compound celecoxib were measured as positive controls. An LC-MS/MS analytical method for determining compound concentration was established. The ratio of analyte/internal standard peak areas (Aanalyte/AIS) measured in the samples, calibrated by the dilution factor, was used as the surrogate concentration for data processing. The binding rate of the compound to melanin (Fb) is calculated by the formula: Fb = 100−(Ctest)/(Ccontrol) × 100% [formula]
Ctest is the drug concentration of the compound in the melanin incubation sample or the peak area ratio of the test compound to the internal standard. Ccontrol is the drug concentration of the compound in the blank control sample or the peak area ratio of the test compound to the internal standard. Percentage of free drug (Fu%) = 100 - Fb The binding rates of the compounds of the present invention to melanin are shown in the table below: Table 11. Binding Rate of Compounds to Melanin

EGFR = target: T1, EGFR (Homo sapiens, UniProt P00533); assay: Kinase inhibitory activity, Mobility Shift Assay (EGFR); type: biochemical
T1 construct: purchased Carna 08-115
Description: Assay for Inhibitory Activity of Compounds Against VEGFR and EGFR Kinases
This assay directly monitors the inhibitory activity of compounds on kinase phosphorylation by measuring non-phosphorylated and phosphorylated substrates in the kinase reaction using Mobility Shift Assays/IMAP™ analysis. Table 2. Reagents and Instruments
Kinase and DTT were added to 1X kinase buffer to form a 2.5X kinase solution; 10 µL of the 2.5X kinase solution was transferred to a 384-well reaction plate, and 1X kinase buffer was added to the negative control wells. The plate was incubated at room temperature for 10 minutes; FAM-labeled peptide, MgCl2, ATP, and other reagents were added to 1X kinase buffer to form a 2.5X substrate solution; 10 µL of the above 2.5X substrate solution was transferred to the 384-well reaction plate; the plate was incubated at 28°C for varying times, and then 25 µL of stop solution was added to the 384-well reaction plate to terminate the reaction. Conversion rate data were read on a CaliperEZ Reader II. […] IC50 values were fitted using XLFit excel add-in version 5.4.0.8. Y = Bottom + (Top−Bottom)/(1 + […]) [formula]
X is the log value of compound concentration, Y is the inhibition rate (% inhibition).

T1 sequence (P00533 25-1210): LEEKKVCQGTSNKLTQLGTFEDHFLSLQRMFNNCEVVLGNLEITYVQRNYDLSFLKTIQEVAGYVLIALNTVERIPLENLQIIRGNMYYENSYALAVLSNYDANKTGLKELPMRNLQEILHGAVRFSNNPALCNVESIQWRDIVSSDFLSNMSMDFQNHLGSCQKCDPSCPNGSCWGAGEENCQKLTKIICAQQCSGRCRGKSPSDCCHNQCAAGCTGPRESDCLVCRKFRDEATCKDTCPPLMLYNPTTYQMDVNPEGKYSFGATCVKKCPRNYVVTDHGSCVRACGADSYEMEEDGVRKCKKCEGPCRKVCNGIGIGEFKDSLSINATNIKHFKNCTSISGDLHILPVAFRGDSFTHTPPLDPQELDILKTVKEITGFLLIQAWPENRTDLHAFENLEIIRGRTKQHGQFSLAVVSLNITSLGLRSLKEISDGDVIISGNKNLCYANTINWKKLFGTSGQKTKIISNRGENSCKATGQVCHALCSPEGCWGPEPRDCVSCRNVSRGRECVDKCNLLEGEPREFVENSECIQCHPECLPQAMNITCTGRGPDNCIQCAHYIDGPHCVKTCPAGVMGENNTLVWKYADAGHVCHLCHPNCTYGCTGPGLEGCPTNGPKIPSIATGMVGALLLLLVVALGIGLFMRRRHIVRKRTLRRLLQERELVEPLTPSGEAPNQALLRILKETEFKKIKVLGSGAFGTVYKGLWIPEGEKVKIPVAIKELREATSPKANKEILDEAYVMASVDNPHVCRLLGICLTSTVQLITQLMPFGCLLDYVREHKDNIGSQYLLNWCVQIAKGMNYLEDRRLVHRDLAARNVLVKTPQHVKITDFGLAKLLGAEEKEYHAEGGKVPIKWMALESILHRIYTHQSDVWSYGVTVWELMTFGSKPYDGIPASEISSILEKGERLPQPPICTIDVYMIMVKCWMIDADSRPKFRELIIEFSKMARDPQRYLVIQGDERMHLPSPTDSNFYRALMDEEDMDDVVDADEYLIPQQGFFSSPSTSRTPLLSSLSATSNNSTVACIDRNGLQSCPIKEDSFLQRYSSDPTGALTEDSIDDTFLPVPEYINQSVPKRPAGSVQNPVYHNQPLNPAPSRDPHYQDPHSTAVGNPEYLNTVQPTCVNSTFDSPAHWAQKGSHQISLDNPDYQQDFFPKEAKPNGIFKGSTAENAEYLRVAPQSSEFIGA

| SMILES | solubility at 8 h [1] [µg/mL] | fraction unbound at 2 h, 2 µM (melanin) | IC50 (EGFR) [µM] |
| --- | --- | --- | --- |
| CNC(=O)c1ccccc1Sc1ccc2c(/C=C/c3cnn(CCN4CCCC4)c3)n[nH]c2c1 [Compound I-9] | 363 (≈ 768 µM) | 0.01 to 0.05 |  |
| CNC(=O)c1ccccc1Sc1ccc2c(/C=C/c3ccn(CCCN4CCCC4)n3)n[nH]c2c1 [Compound I-11] | 866 (≈ 1780 µM) | 0.01 to 0.05 |  |
| CNC(=O)c1ccccc1Sc1ccc2c(C#Cc3ccc(OCCN4CCCC4)cn3)n[nH]c2c1 [Compound I-16] | 27.2 (≈ 54.7 µM) | ≤ 0.01 |  |
| CNC(=O)c1ccccc1Sc1cnc2c(/C=C/c3ccccn3)n[nH]c2c1 [Compound I-21, N-methyl-2-({3-[(E)-2-(pyridin-2-yl)ethenyl]-1H-pyrazolo[4,3-b]pyridin-6-yl}sulfanyl)benzamide] | 0.9 (≈ 2.32 µM) | 0.01 to 0.05 |  |
| O=C(NC1CC1)c1ccccc1Sc1ccc2c(/C=C/c3ccc(CN4CCCC4)cn3)n[nH]c2c1 [Compound I-41] |  | > 0.05 |  |
| O=C(NC1CC1)c1ccccc1Sc1ccc2c(/C=C/c3cnn(CCCN4CCCC4)c3)n[nH]c2c1 [Compound I-43] | 71.6 (≈ 140 µM) | 0.01 to 0.05 |  |
| CN(C)CCOc1ccc(/C=C/c2n[nH]c3cc(Sc4ccccc4C(=O)NC4CC4)ccc23)nc1 [Compound I-51, N-cyclopropyl-2-({3-[(E)-2-{5-[2-(dimethylamino)ethoxy]pyridin-2-yl}ethenyl]-1H-indazol-6-yl}sulfanyl)benzamide] |  | 0.01 to 0.05 |  |
| CCN(CC)CCOc1ccc(/C=C/c2n[nH]c3cc(Sc4ccccc4C(=O)NC4CC4)ccc23)nc1 [Compound I-52] |  | > 0.05 |  |
| O=C(NC1CC1)c1ccccc1Sc1ccc2c(/C=C/c3cnn(CCN4CCCC4)c3)n[nH]c2c1 [Compound I-61] |  | 0.01 to 0.05 |  |
| CCNC(=O)c1ccccc1Sc1ccc2c(/C=C/c3ccc(CN4CCCC4)cn3)n[nH]c2c1 [Compound I-73, N-ethyl-2-({3-[(E)-2-{5-[(pyrrolidin-1-yl)methyl]pyridin-2-yl}ethenyl]-1H-indazol-6-yl}thio)benzamide] |  | 0.01 to 0.05 |  |
| CNC(=O)c1cccc(F)c1Sc1ccc2c(/C=C/c3cnn(CCCN4CCCC4)c3)n[nH]c2c1 [Compound I-76] | 1770 (≈ 3520 µM) | > 0.05 |  |
| CCN(CC)Cc1ccc(/C=C/c2n[nH]c3cc(Sc4ccccc4C(=O)NC4CC4)ccc23)nc1 [Compound I-78] | 27.6 (≈ 55.5 µM) | 0.01 to 0.05 |  |
| CCN(CC)Cc1ccc(/C=C/c2n[nH]c3cc(Sc4cc(F)ccc4C(=O)NC4CC4)ccc23)nc1 [Compound I-83, N-cyclopropyl-4-fluoro-2-({3-[(E)-2-{5-[(diethylamino)methyl]pyridin-2-yl}ethenyl]-1H-indazol-6-yl}thio)benzamide] | 79.6 (≈ 154 µM) | > 0.05 |  |
| CCN(CC)Cc1ccc(/C=C/c2n[nH]c3cc(Sc4ccccc4C(=O)NC)ccc23)nc1 [Compound I-90] | 31.9 (≈ 67.6 µM) | 0.01 to 0.05 |  |
| CCN(CC)Cc1ccc(/C=C/c2n[nH]c3cc(Sc4c(F)cccc4C(=O)NC)ccc23)nc1 [Compound I-91] | 1650 (≈ 3370 µM) | 0.01 to 0.05 |  |
| CCN(CC)Cc1ccc(/C=C/c2n[nH]c3cc(Sc4ccc(F)cc4C(=O)NC)ccc23)nc1 [Compound I-93] |  | 0.01 to 0.05 |  |
| CCN(CC)Cc1ccc(/C=C/c2n[nH]c3cc(Sc4ccccc4C(=O)NCCF)ccc23)nc1 [Compound I-98, 2-({3-[(E)-2-{5-[(diethylamino)methyl]pyridin-2-yl}ethenyl]-1H-indazol-6-yl}sulfanyl)-N-(2-fluoroethyl)benzamide] | 456 (≈ 905 µM) | > 0.05 |  |
| CCN(CC)Cc1ccc(/C=C/c2n[nH]c3cc(Sc4ccccc4C(=O)NCC(F)F)ccc23)nc1 [Compound I-99] | 341 (≈ 654 µM) | > 0.05 |  |
| CCN(CC)Cc1ccc(/C=C/c2n[nH]c3cc(Sc4ccccc4C(=O)NCC(F)(F)F)ccc23)nc1 [Compound I-100] | 209 (≈ 387 µM) | > 0.05 |  |
| O=C(NC1CC1)c1ccccc1Sc1ccc2c(/C=C/c3cc(CN4CCCC4)ccn3)n[nH]c2c1 [Compound I-115] |  | 0.01 to 0.05 |  |

More lines, now with the values ahead:

| solubility at 8 h [1] [µg/mL] | fraction unbound at 2 h, 2 µM (melanin) | IC50 (EGFR) [µM] | SMILES |
| --- | --- | --- | --- |
| 1870 (≈ 3560 µM) | 0.01 to 0.05 |  | O=C(NC1CC1)c1ccccc1Sc1ccc2c(/C=C/c3ccc(OCCN4CCCC4)cn3)n[nH]c2c1 [Compound I-8, N-cyclopropyl-2-((3-((E)-2-(5-(2-(pyrrolidin-1-yl)ethoxy)pyridin-2-yl)ethenyl)-1H-indazol-6-yl)thio)benzamide] |
| 78.8 (≈ 158 µM) | 0.01 to 0.05 |  | CNC(=O)c1ccccc1Sc1ccc2c(/C=C/c3cccc(OCCN4CCCC4)c3)n[nH]c2c1 [Compound I-15] |
| 278 (≈ 556 µM) | 0.01 to 0.05 |  | CNC(=O)c1ccccc1Sc1ccc2c(/C=C/c3cccc(OCCN4CCCC4)n3)n[nH]c2c1 [Compound I-17] |
|  | 0.01 to 0.05 |  | CNC(=O)c1ccccc1Sc1ccc2c(/C=C/c3ccnc(OCCN4CCCC4)c3)n[nH]c2c1 [Compound I-18] |
| 128 (≈ 256 µM) | 0.01 to 0.05 |  | CNC(=O)c1ccccc1Sc1ccc2c(/C=C/c3cc(OCCN4CCCC4)ccn3)n[nH]c2c1 [Compound I-20] |
| 57.7 (≈ 111 µM) | > 0.05 |  | CNC(=O)c1cccc(F)c1Sc1ccc2c(/C=C/c3ccc(OCCN4CCCC4)cn3)n[nH]c2c1 [Compound I-33, 3-fluoro-N-methyl-2-({3-[(E)-2-{5-[2-(pyrrolidin-1-yl)ethoxy]pyridin-2-yl}ethenyl]-1H-indazol-6-yl}sulfanyl)benzamide] |
| 19.3 (≈ 37.3 µM) | > 0.05 |  | CNC(=O)c1cc(F)ccc1Sc1ccc2c(/C=C/c3ccc(OCCN4CCCC4)cn3)n[nH]c2c1 [Compound I-34, 5-fluoro-N-methyl-2-({3-[(E)-2-{5-[2-(pyrrolidin-1-yl)ethoxy]pyridin-2-yl}ethenyl]-1H-indazol-6-yl}sulfanyl)benzamide] |
| 26.6 (≈ 51.4 µM) | 0.01 to 0.05 |  | CNC(=O)c1ccc(F)cc1Sc1ccc2c(/C=C/c3ccc(OCCN4CCCC4)cn3)n[nH]c2c1 [Compound I-35, 4-fluoro-N-methyl-2-({3-[(E)-2-{5-[2-(pyrrolidin-1-yl)ethoxy]pyridin-2-yl}ethenyl]-1H-indazol-6-yl}sulfanyl)benzamide] |
|  | > 0.05 |  | O=C(NC1CC1)c1ccccc1Sc1ccc2c(/C=C/c3ccc(OCCN4CCCCC4)cn3)n[nH]c2c1 [Compound I-53] |
| 199 (≈ 387 µM) | 0.01 to 0.05 |  | O=C(NC1CC1)c1cc(F)ccc1Sc1ccc2c(/C=C/c3ccc(CN4CCCC4)cn3)n[nH]c2c1 [Compound I-80] |
| 31.8 (≈ 65.2 µM) | 0.01 to 0.05 |  | CNC(=O)c1ccc(F)cc1Sc1ccc2c(/C=C/c3ccc(CN4CCCC4)cn3)n[nH]c2c1 [Compound I-94] |
|  | 0.01 to 0.05 |  | CNC(=O)c1ccccc1Sc1ccc2c(/C=C/c3ccc(CCN4CCCC4)cn3)n[nH]c2c1 [Compound I-107] |
|  |  | > 60 | CCNC(=O)c1cc(F)ccc1Sc1ccc2c(/C=C/c3cc(CCCN4CCCC4)ccn3)n[nH]c2c1 [Compound I-122] |
